Experimental data reported in patent US20240309015A1, “Methods for the Treatment of Fibrotic Disease” (SHY Therapeutics, LLC, priority 2021, published 2024).

Columns and labels:
[1] = test system: IL-6; assay: Mouse IL6 Quantification Assay (LPS-stimulated RAW 264.7); format: cell-based; parameters: dose or concentration left out as unconfirmed; conditions: RAW264.7, ELISA, read-out: IL-6: % inh.
[2] = test system: TNFα; assay: Mouse TNF Alpha Quantification Assay (LPS-stimulated RAW 264.7); format: cell-based; parameters: dose or concentration left out as unconfirmed; conditions: RAW264.7, ELISA, read-out: TNFα: % inh.
[3] = test system: KRas wild type; assay: Ras GTP Binding Domain Inhibition Assay, KRas wild type; conditions: at 20 μM; for KRas wild type + SOS: % inh.: with SOS; for KRas wild type: % inh.: without SOS
Experimental: (§1) A Ras Superfamily Activity Assay (as disclosed in International Application No. PCT/US2018/038613, filed Jun. 20, 2018, which is incorporated by reference in its entirety) was used as a specific assay to evaluate compounds against the following for the following Ras Superfamily proteins: KRas wild type, KRas Q61H mutant, KRas G12C mutant, KRas G12D mutant, Rac-1, and Rho-A.
(§2) Buffer-I: • 25 mM Tris-HCl, pH 7.4 • 27 mM KCl • 137 mM NaCl • 1 mM MgCl2 • 1 mM DTT
(§3) Buffer-IL: • 50 mM Tris-HCl, pH 7.0 • 1 mM MgCl2 • 1 mM DTT
(§4) The small GTPases proteins: KRas wild type. KRas Q61H mutant, KRas G12C mutant, KRas G12D mutants, Rac-1, and Rho-A were expressed as His-tagged proteins. In addition, the Guanosine nucleotide Exchange Factor (GEF) Sos protein (residues 556-1049) was expressed as a His-tagged protein. In cells, the guanine nucleotide exchange factor Sos protein promotes activation of Ras proteins by stimulating an exchange of GDP for GTP. The inclusion of Sos to the Ras GTP binding domain inhibition assay may be considered as an alternative representation of physiological cellular conditions for evaluating the inhibitory activity of some of the tested small molecules.
(§5) For the assay, all purified small GTPases proteins were diluted in Buffer-I or Buffer-II to a final concentration of 10-30 μg/mL. 200 μL of each diluted protein was added to a nickel-coated 96-well plate and incubated overnight at 4° C. Then the protein solution was discarded and 200 μL of Buffer-I or Buffer-II was added to each well in the presence of 1% DMSO. Compounds to be tested were added to the protein-coated wells at final concentration of 20 μM, and incubated for 3 hours at room temperature with and without 10-30 μg/mL of Sos added to the final hour of the incubation. When performing IC50 measurements a serial dilution of all tested concentrations was added. Then Cy3-GTP or Cy5-GTP was added to each well to a final concentration of 100 nM. The labeled GTP was incubated for 45 minutes at room temperature. Following GTP incubation, wells were washed 3× in Buffer-I or Buffer-II and 200 μL of Buffer-I or Buffer-II was added to each well. Following washes, the amount of bound labeled-GTP was measured using a SpectraMax M3 (Molecular Devices).

[4] = test system: KRas G12D mutant; assay: Ras GTP Binding Domain Inhibition Assay, KRas G12D mutant; conditions: at 20 μM; for KRas G12D mutant + SOS: % inh.: with SOS; for KRas G12D mutant: % inh.: without SOS
Experimental: as §1, §2, §3, §4, §5

[5] = test system: KRas G12C mutant; assay: Ras GTP Binding Domain Inhibition Assay, KRas G12C mutant; conditions: at 20 μM; for KRas G12C mutant + SOS: % inh.: with SOS; for KRas G12C mutant: % inh.: without SOS
Experimental: as §1, §2, §3, §4, §5

[6] = test system: Rho-A; assay: Ras GTP Binding Domain Inhibition Assay, Rho-A; conditions: at 20 μM; without SOS
Experimental: as §1, §2, §3, §4, §5

[7] = test system: Smad2/3 phosphorylation; assay: Phospho-Smad2/3 Inhibition Assay in PANC-1; format: cell-based; conditions: Homo sapiens; 10 μM compound, 3 h; TGF-b1 stimulated PANC-1; western blot; read-out: % inh of Smad2/3 phosphorylation in PANC-1
Experimental: Cell lines: Human tumor-derived pancreatic cancer cell line Panc-1 and mouse muscle myoblast C2C12 were purchased from American Type Culture Collection and grown in complete DMEM-High Glucose, supplemented with penicillin (100 U/mL), streptomycin (100 μg/mL), and 10% heat-inactivated FBS at 37° C. in a humidified incubator with 5% CO2.
Method: Cells were plated at 350000 cells/well density in a 12-well plate, allowed 3 hours to adhere to the plate, then starved in the appropriate medium in the presence of 0.5% FBS overnight. The small molecules to be tested were added to the cells in the final concentration of 10 μM in the presence of 0.3% DMSO for 3 hours incubation at 37° C. For IC50 value determination, serial dilutions of compounds were added to cells under the same conditions. Next, Panc-1 cells were stimulated with 10 ng/ml TGF-b1 for 1 hour, and C2C12 cells were stimulated with 10 ng/ml TGF-b1 for 20 minutes (recombinant human TGF-b1, R&D Systems). After stimulation cells were lysed with lysis buffer containing 1% Triton X-100, EDTA, and Halt™ Protease & Phosphatase Inhibitor Cocktail (Thermo Scientific). Protein concentration was assessed by BCA protein assay (Thermo Scientific). Phosphorylation level of Smad2/Smad3 was determined by western blot.
Western blot protocol: Equal amounts of protein (15-50 μg) were separated by SDS-PAGE and transferred to nitrocellulose membranes (Invitrogen by Thermo Fisher Scientific). The membrane was stained with Ponceau S Stain (Boston BioProducts) to verify uniform protein loading. Membranes were blocked with 10% milk and phosphorylation levels of Smad2/Smad3 were assessed by incubating overnight at 4° C. with the following antibodies: Phospho-Smad2 (Ser465/467) and Phosph-Smad3 (Ser423/425), both from Cell Signaling Technology. Then the membranes were incubated with HRP-conjugated secondary antibody (Jackson Immunoresearch, West Grove, PA). Bands were incubated in Amersham ECL Prime Western Blotting Detection Reagent (GE Healthcare) and visualized using the ChemiDoc MP imaging system (Bio-Rad).

Row | SMILES | KRas wild type + SOS: % inh. [3] | KRas wild type: % inh. [3] | KRas G12D mutant + SOS: % inh. ([4]; Table 7) | KRas G12D mutant + SOS: % inh. ([4]; Table 8) | KRas G12D mutant: % inh. ([4]; Table 7) | KRas G12D mutant: % inh. ([4]; Table 8) | KRas G12C mutant + SOS: % inh. [5] | KRas G12C mutant: % inh. [5] | Rho-A: % inh. [6] | inhibition [1] [%] | inhibition [2] [%] | inhibition at 10 µM [7] [%]
1 | CO[C@H]1C[C@H](CNc2nc(-c3nccn3C)nc3sc(-c4ccn(C(C)C)n4)c(C)c23)C1 [Compound 16, 6-(1-Isopropyl-1H-pyrazol-3-yl)-N-(((1r,3r)-3-methoxycyclobutyl)methyl)-5-methyl-2-(1-methyl-1H-imidazol-2-yl)thieno[2,3-d]pyrimidin-4-amine] | C (C = 46-75% inhibition) | D (D = 76-100% inhibition) | C (C = 46-75% inhibition) | C (C = 46-75% inhibition) | B (B = 26-45% inhibition) | B (B = 26-45% inhibition) | C (C = 46-75% inhibition) | C (C = 46-75% inhibition) | C (C = 46-75% inhibition) | 46 to 75 | 1 to 25 | –
2 | COc1cccc(Nc2nc(-c3nccn3C)nc3sc(-c4ccn(C(C)C)n4)c(C)c23)n1 [Compound 18, 6-(1-Isopropyl-1H-pyrazol-3-yl)-N-(6-methoxypyridin-2-yl)-5-methyl-2-(1-methyl-1H-imidazol-2-yl)thieno[2,3-d]pyrimidin-4-amine] | C (C = 46-75% inhibition) | C (C = 46-75% inhibition) | C (C = 46-75% inhibition) | C (C = 46-75% inhibition) | D (D = 76-100% inhibition) | D (D = 76-100% inhibition) | C (C = 46-75% inhibition) | C (C = 46-75% inhibition) | D (D = 76-100% inhibition) | 26 to 45 | 0 | –
3 | COCCOCCNc1nc(-c2nccn2C)nc2sc(-c3ccn(C(C)C)n3)c(C)c12 [Compound 21, 6-(1-Isopropyl-1H-pyrazol-3-yl)-N-(2-(2-methoxyethoxy)ethyl)-5-methyl-2-(1-methyl-1H-imidazol-2-yl)thieno[2,3-d]pyrimidin-4-amine] | D (D = 76-100% inhibition) | D (D = 76-100% inhibition) | D (D = 76-100% inhibition) | D (D = 76-100% inhibition) | D (D = 76-100% inhibition) | D (D = 76-100% inhibition) | D (D = 76-100% inhibition) | C (C = 46-75% inhibition) | D (D = 76-100% inhibition) | 46 to 75 | 1 to 25 | –
4 | COc1cccc(-c2sc3nc(-c4nccn4C)nc(N[C@H]4C[C@H](OC)C4)c3c2C)c1F [Compound 42, 6-(2-Fluoro-3-methoxyphenyl)-N-((1r,3r)-3-methoxycyclobutyl)-5-methyl-2-(1-methyl-1H-imidazol-2-yl)thieno[2,3-d]pyrimidin-4-amine] | D (D = 76-100% inhibition) | D (D = 76-100% inhibition) | D (D = 76-100% inhibition) | D (D = 76-100% inhibition) | B (B = 26-45% inhibition) | B (B = 26-45% inhibition) | D (D = 76-100% inhibition) | C (C = 46-75% inhibition) | C (C = 46-75% inhibition) | 46 to 75 | 0 | –

The next lines start with results.

Row | KRas wild type + SOS: % inh. [3] | KRas wild type: % inh. [3] | KRas G12D mutant + SOS: % inh. ([4]; Table 7) | KRas G12D mutant + SOS: % inh. ([4]; Table 8) | KRas G12D mutant: % inh. ([4]; Table 7) | KRas G12D mutant: % inh. ([4]; Table 8) | KRas G12C mutant + SOS: % inh. [5] | KRas G12C mutant: % inh. [5] | Rho-A: % inh. [6] | SMILES | inhibition [1] [%] | inhibition [2] [%] | inhibition at 10 µM [7] [%]
5 | D (D = 76-100% inhibition) | B (B = 26-45% inhibition) | D (D = 76-100% inhibition) | D (D = 76-100% inhibition) | A (A = 1-25% inhibition) | A (A = 1-25% inhibition) | D (D = 76-100% inhibition) | B (B = 26-45% inhibition) | B (B = 26-45% inhibition) | COc1cccc(-c2sc3nc(-c4nccn4C)nc(N[C@@H]4CC[C@@H](OC)C4)c3c2C)c1F (racemic) [Compound 43, rac-6-(2-Fluoro-3-methoxyphenyl)-N-((1R,3R)-3-methoxycyclopentyl)-5-methyl-2-(1-methyl-1H-imidazol-2-yl)thieno[2,3-d]pyrimidin-4-amine] | 76 to 100 | 26 to 45 | –
6 | D (D = 76-100% inhibition) | C (C = 46-75% inhibition) | C (C = 46-75% inhibition) | C (C = 46-75% inhibition) | D (D = 76-100% inhibition) | D (D = 76-100% inhibition) | D (D = 76-100% inhibition) | B (B = 26-45% inhibition) | 0 (0 = 0% inhibition) | COc1cc(-c2sc3nc(-c4nccn4C)nc(N[C@@H]4CC[C@H](OC)C4)c3c2-c2ccccc2)ccn1 (racemic) [Compound 44, rac-N-((1R,3S)-3-Methoxycyclopentyl)-6-(2-methoxypyridin-4-yl)-2-(1-methyl-1H-imidazol-2-yl)-5-phenylthieno[2,3-d]pyrimidin-4-amine] | – | – | 76 to 100
7 | D (D = 76-100% inhibition) | D (D = 76-100% inhibition) | D (D = 76-100% inhibition) | D (D = 76-100% inhibition) | C (C = 46-75% inhibition) | C (C = 46-75% inhibition) | D (D = 76-100% inhibition) | C (C = 46-75% inhibition) | C (C = 46-75% inhibition) | COc1cc(-c2sc3nc(-c4nccn4C)nc(N[C@@H]4CC[C@@H](OC)C4)c3c2-c2ccccc2)ccn1 (racemic) [Compound 47, N-((1R,3R)-3-Methoxycyclopentyl)-6-(2-methoxypyridin-4-yl)-2-(1-methyl-1H-imidazol-2-yl)-5-phenylthieno[2,3-d]pyrimidin-4-amine] | – | – | 76 to 100
